Results: paper PMC4052943 (BioMed Research International, 2014)
Like-named read-outs stand apart in the source and are kept apart here.

How the values were obtained:
[1] = tested on: Salmonella typhimurium TA102; test: Ames antimutagenicity assay (preincubation); details: for inhibition at 50 µM / inhibition at 100 µM / inhibition at 250 µM / inhibition at 500 µM: Salmonella enterica, TYPHIMURIUM;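 on all read-outs here: compound and mutagen preincubated 30 min at 37 °C before adding bacteria, His+ revertant colonies counted after 48 h at 37 °C, inhibition relative to mutagen-alone minus negative-control revertants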
Method: (§2) In the preincubation experiment, test compounds and mutagen, each having a volume of 0.1 mL of varying concentrations, were preincubated at 37°C for 30 min and then 0.1 mL of 1 × 10^7 CFU/mL density of the bacterial culture was added, followed by the addition of 2.5 mL of top agar at 45°C (containing 0.5% NaCl and 0.6% agar) supplemented with 0.5 mM histidine-biotin. […] The combined solutions were vortexed and poured onto minimal glucose plates (40% glucose solution and Vogel Bonner medium). The plates were incubated at 37°C for 48 h and the numbers of histidine-independent revertants colonies were scored.
(§3) Survival of the bacteria was routinely monitored for each experiment. Parallel controls were run with compounds alone at all concentrations to test the possible toxicity. The concentrations of the test samples for investigating the antimutagenicity were 50, 100, 200, and 500 μM. […] All the test samples and mutagens were dissolved in DMSO (final conc., 0.01%). […] Plates were set up in triplicate for each concentration and the entire experiment was repeated three times. Inhibition of mutagenicity was expressed as percentage decrease of reverse mutation and calculated as (1) Percent inhibition=[(a−b)/(a−c)]×100, where a = number of histidine revertants induced by mutagen, b = number of histidine revertants induced by mutagen in the presence of test compound, and c = number of revertants induced in negative control.

[2] = tested on: BP-induced DNA adducts (rat liver microsomes, st-DNA); test: Microsomal BP-DNA adducts, 32P-postlabeling; format: biochemical; details: for BP-induced DNA adducts: BP 1 μM, rat liver microsomes, st-DNA
Method: st-DNA (300 μg/mL) was preincubated with 50 mM Tris-HCl (pH 7.5), 1 mM MgCl2, 2.5 mM glucose-6-phosphate, 1 U/mL G6PDH, 0.5 mM NADP+, and α-naphthoflavone-induced rat liver microsomal proteins (1 mg/mL) in 1 mL for 10 min, in the presence of vehicle alone and PC and EA at 20 and 40 μM. […] The incubation was continued for another 30 min at 37°C and then reaction was terminated by the addition of EDTA and centrifugation (9,000 g; 10 min). DNA was isolated from the supernatant by removal of RNA and proteins by digestions with RNases A and T1 and proteinase K and a series of extractions with phenol, phenol: Sevag (chloroform : isoamyl alcohol, 24 : 1), and Sevag, followed by precipitation of the DNA with ethanol. The DNA concentration was estimated spectrophotometrically.
DNA adducts were analyzed by ^32P-postlabeling as described earlier. Briefly, 10 μg of DNA was digested with micrococcal nuclease and spleen phosphodiesterase (MN/SPD). Before further treatment with nuclease P1 to enrich DNA adducts, an aliquot was removed for evaluation of normal nucleotide levels. DNA adducts and normal nucleotides were labelled with [γ-^32P]ATP and T4 polynucleotide kinase. Labelled adducts were separated by multidirectional polyethyleneimine (PEI)-cellulose TLC using the following solvents: D1, 1.0 M sodium phosphate, pH 6.0; D3, 4 M lithium formate/7 M urea, pH 3.5; D4, 4 M ammonium hydroxide/isopropanol (1 : 0.9); and D5, 1.7 M sodium phosphate, pH 6.0. Normal nucleotides were resolved in 180 mM sodium phosphate, pH 6.0, by one-directional PEI-cellulose TLC. DNA adducts and normal nucleotides were detected and quantified by Packard InstantImager.

H1299 cells = test: MTT cell proliferation assay; format: cell-based; details: Homo sapiens, NCI-H1299; H1299; 50 μg/mL; 48 h; read-out: inhibition of cells (antiproliferative activity, MTT)
Method: (§1) Inhibition of cell proliferation by PC and EA was measured with the MTT assay. Human lung cancer A549 and H1299 cells were obtained from ATCC (Manassas, VA, USA) and maintained in DMEM supplemented with 10% fetal calf serum (FCS), 1% penicillin/streptomycin. Cells were plated in 96-well culture plates (5 × 10^3 cells/well). After 24 h incubation, cells were treated with vehicle alone (0.1% DMSO) and PC and EA (12.5–200 μg/mL) extracts for 48 h. Then, the culture medium was replaced by 100 μL of fresh medium containing 0.5 mg/mL MTT, and the plates were incubated for 2 h at 37°C. The medium was then removed and was replaced by 200 μL of DMSO to solubilize the converted purple dye. The absorbance was measured with a spectrophotometer microplate reader at a wavelength of 570 nm.

A549 cells = test: MTT cell proliferation assay; format: cell-based; details: Homo sapiens; A549; 50 μg/mL; 48 h; read-out: inhibition of cells (antiproliferative activity, MTT)
Method: as §1

[3] = tested on: Salmonella typhimurium TA100; test: Ames antimutagenicity assay (preincubation); details: for inhibition at 50 µM / inhibition at 100 µM / inhibition at 250 µM / inhibition at 500 µM: Salmonella enterica, TYPHIMURIUM;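 on all read-outs here: compound and mutagen preincubated together 30 min at 37°C before bacteria added, then plates incubated 48 h at 37°C, inhibition relative to mutagen-alone revertants after subtracting the negative control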
Method: as §2, §3

O=c1oc2c(O)c(O)cc3c(=O)oc4c(O)c(O)cc1c4c23 [Ellagic acid, ellagic acid]
inhibition at 50 µM ([1]; read-out: % inhibition of mutagenicity, TA 102, 50 μM + 2AF, S9): 17.5% | inhibition at 50 µM ([1]; read-out: % inhibition of mutagenicity, TA 102, 50 μM + BP, S9): 11.5% | inhibition at 50 µM ([1]; read-out: % inhibition of mutagenicity, TA 102, 50 μM + MMS, no S9): 18.5% | inhibition at 50 µM ([1]; read-out: % inhibition of mutagenicity, TA 102, 50 μM + NaN3, no S9): 21.9% | inhibition at 100 µM ([1]; read-out: % inhibition of mutagenicity, TA 102, 100 μM + 2AF, S9): 45.9% | inhibition at 100 µM ([1]; read-out: % inhibition of mutagenicity, TA 102, 100 μM + BP, S9): 23.6% | inhibition at 100 µM ([1]; read-out: % inhibition of mutagenicity, TA 102, 100 μM + MMS, no S9): 30.3% | inhibition at 100 µM ([1]; read-out: % inhibition of mutagenicity, TA 102, 100 μM + NaN3, no S9): 40.3% | inhibition at 250 µM ([1]; read-out: % inhibition of mutagenicity, TA 102, 250 μM + BP, S9): 46.6% | inhibition at 250 µM ([1]; read-out: % inhibition of mutagenicity, TA 102, 250 μM + MMS, no S9): 44.3% | inhibition at 250 µM ([1]; read-out: % inhibition of mutagenicity, TA 102, 250 μM + NaN3, no S9): 50.7% | inhibition at 500 µM ([1]; read-out: % inhibition of mutagenicity, TA 102, 500 μM + 2AF, S9): 89% | inhibition at 500 µM ([1]; read-out: % inhibition of mutagenicity, TA 102, 500 μM + BP, S9): 83.7% | inhibition at 500 µM ([1]; read-out: % inhibition of mutagenicity, TA 102, 500 μM + MMS, no S9): 72.4% | inhibition at 500 µM ([1]; read-out: % inhibition of mutagenicity, TA 102, 500 μM + NaN3, no S9): 62.3% | Number of His+ revertants colonies/plate ([1]; TA 102, 50 μM + 2AF, S9): 1276.0 ± 38.0 colonies/plate | Number of His+ revertants colonies/plate ([1]; TA 102, 50 μM + BP, S9): 653.0 ± 34.7 colonies/plate | Number of His+ revertants colonies/plate ([1]; TA 102, 50 μM + MMS, no S9): 1071.0 ± 16.7 colonies/plate | Number of His+ revertants colonies/plate ([1]; TA 102, 50 μM + NaN3, no S9): 345.3 ± 26.7 colonies/plate | Number of His+ revertants colonies/plate ([1]; TA 102, 100 μM + 2AF, S9): 924.0 ± 25.3 colonies/plate | Number of His+ revertants colonies/plate ([1]; TA 102, 100 μM + BP, S9): 595.0 ± 24.1 colonies/plate | Number of His+ revertants colonies/plate ([1]; TA 102, 100 μM + MMS, no S9): 956.0 ± 19.6 colonies/plate | Number of His+ revertants colonies/plate ([1]; TA 102, 100 μM + NaN3, no S9): 328.0 ± 28.2 colonies/plate | Number of His+ revertants colonies/plate ([1]; TA 102, 250 μM + BP, S9): 514.0 ± 21.4 colonies/plate | Number of His+ revertants colonies/plate ([1]; TA 102, 250 μM + MMS, no S9): 810.0 ± 19.1 colonies/plate | Number of His+ revertants colonies/plate ([1]; TA 102, 250 μM + NaN3, no S9): 308.0 ± 23.6 colonies/plate | Number of His+ revertants colonies/plate ([1]; TA 102, 500 μM + 2AF, S9): 431.0 ± 13.6 colonies/plate | Number of His+ revertants colonies/plate ([1]; TA 102, 500 μM + BP, S9): 366.0 ± 25.0 colonies/plate | Number of His+ revertants colonies/plate ([1]; TA 102, 500 μM + MMS, no S9): 506.0 ± 13.5 colonies/plate | Number of His+ revertants colonies/plate ([1]; TA 102, 500 μM + NaN3, no S9): 288.3 ± 19.2 colonies/plate | BP-induced DNA adducts ([2]; 20 μM test compound): 58.6 ± 2.8 DNA adducts/10^8 nucleotides | BP-induced DNA adducts ([2]; 40 μM test compound): 50.9 ± 8.1 DNA adducts/10^8 nucleotides | inhibition of BP-induced DNA adducts ([2]; 40 μM, BP with rat liver microsomes, cofactors, DNA): 77% | inhibition at 50 µg/mL (H1299 cells): 34% | inhibition at 50 µg/mL (A549 cells): 39% | inhibition at 50 µM ([3]; read-out: % inhibition of mutagenicity, TA 100, 50 μM + 2AF, S9): 22.5% | inhibition at 50 µM ([3]; read-out: % inhibition of mutagenicity, TA 100, 50 μM + BP, S9): 21.8% | inhibition at 50 µM ([3]; read-out: % inhibition of mutagenicity, TA 100, 50 μM + MMS, no S9): 8% | inhibition at 50 µM ([3]; read-out: % inhibition of mutagenicity, TA 100, 50 μM + NaN3, no S9): 11.4% | inhibition at 100 µM ([3]; read-out: % inhibition of mutagenicity, TA 100, 100 μM + 2AF, S9): 46.1% | inhibition at 100 µM ([3]; read-out: % inhibition of mutagenicity, TA 100, 100 μM + BP, S9): 42.8% | inhibition at 100 µM ([3]; read-out: % inhibition of mutagenicity, TA 100, 100 μM + MMS, no S9): 26.4% | inhibition at 100 µM ([3]; read-out: % inhibition of mutagenicity, TA 100, 100 μM + NaN3, no S9): 25.6% | inhibition at 250 µM ([3]; read-out: % inhibition of mutagenicity, TA 100, 250 μM + BP, S9): 70% | inhibition at 250 µM ([3]; read-out: % inhibition of mutagenicity, TA 100, 250 μM + MMS, no S9): 45.1% | inhibition at 250 µM ([3]; read-out: % inhibition of mutagenicity, TA 100, 250 μM + NaN3, no S9): 46.4% | inhibition at 500 µM ([3]; read-out: % inhibition of mutagenicity, TA 100, 500 μM + 2AF, S9): 83.8% | inhibition at 500 µM ([3]; read-out: % inhibition of mutagenicity, TA 100, 500 μM + BP, S9): 88.9% | inhibition at 500 µM ([3]; read-out: % inhibition of mutagenicity, TA 100, 500 μM + MMS, no S9): 65.3% | inhibition at 500 µM ([3]; read-out: % inhibition of mutagenicity, TA 100, 500 μM + NaN3, no S9): 65.9% | Number of His+ revertants colonies/plate ([3]; TA 100, 50 μM + 2AF, S9): 426.0 ± 18.6 colonies/plate | Number of His+ revertants colonies/plate ([3]; TA 100, 50 μM + BP, S9): 580.3 ± 25.6 colonies/plate | Number of His+ revertants colonies/plate ([3]; TA 100, 50 μM + MMS, no S9): 900.3 ± 16.3 colonies/plate | Number of His+ revertants colonies/plate ([3]; TA 100, 50 μM + NaN3, no S9): 340.7 ± 9.4 colonies/plate | Number of His+ revertants colonies/plate ([3]; TA 100, 100 μM + 2AF, S9): 350.0 ± 12.8 colonies/plate | Number of His+ revertants colonies/plate ([3]; TA 100, 100 μM + BP, S9): 472.3 ± 19.4 colonies/plate | Number of His+ revertants colonies/plate ([3]; TA 100, 100 μM + MMS, no S9): 754.0 ± 8.2 colonies/plate | Number of His+ revertants colonies/plate ([3]; TA 100, 100 μM + NaN3, no S9): 312.3 ± 8.4 colonies/plate | Number of His+ revertants colonies/plate ([3]; TA 100, 250 μM + BP, S9): 336.0 ± 17.6 colonies/plate | Number of His+ revertants colonies/plate ([3]; TA 100, 250 μM + MMS, no S9): 598.7 ± 14.2 colonies/plate | Number of His+ revertants colonies/plate ([3]; TA 100, 250 μM + NaN3, no S9): 266.0 ± 7.8 colonies/plate | Number of His+ revertants colonies/plate ([3]; TA 100, 500 μM + 2AF, S9): 240.7 ± 9.8 colonies/plate | Number of His+ revertants colonies/plate ([3]; TA 100, 500 μM + BP, S9): 245.7 ± 14.4 colonies/plate | Number of His+ revertants colonies/plate ([3]; TA 100, 500 μM + MMS, no S9): 420.3 ± 6.9 colonies/plate | Number of His+ revertants colonies/plate ([3]; TA 100, 500 μM + NaN3, no S9): 210.3 ± 12.4 colonies/plate
